Patent publication US6833387B1, “Chemical compounds” (AstraZeneca AB, priority 1999, dated 2004)
Where two headings read alike, the source gives them in different places.

Experiments:
[1] = target: T1, MCP-1 receptor B (CCR2B) (Homo sapiens, UniProt P41597); assay: hMCP-1 receptor binding assay (125I-MCP-1, CHO-CCR2B cell membranes)
T1 construct: expressed in transfected cells; membrane fragments
T1 sequence (P41597 1-360 isoform P41597-2): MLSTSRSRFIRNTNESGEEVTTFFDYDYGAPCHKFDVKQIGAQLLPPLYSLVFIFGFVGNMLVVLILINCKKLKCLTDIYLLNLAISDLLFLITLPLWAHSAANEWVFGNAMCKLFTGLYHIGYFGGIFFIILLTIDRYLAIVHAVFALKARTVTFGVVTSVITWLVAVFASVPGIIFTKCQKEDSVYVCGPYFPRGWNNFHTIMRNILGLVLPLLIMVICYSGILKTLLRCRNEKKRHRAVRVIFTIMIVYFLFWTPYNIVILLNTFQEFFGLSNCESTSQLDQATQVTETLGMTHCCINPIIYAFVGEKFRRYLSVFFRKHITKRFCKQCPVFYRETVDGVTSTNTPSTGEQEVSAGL
Description: The MCP-1 receptor B (CCR2B) cDNA was cloned by PCR from THP-1 cell RNA using suitable oligonucleotide primers based on the published MCP-1 receptor sequences (Charo et al., 1994, Proc. Natl. Acad Sci. USA. 91, 2752). The resulting PCR products were cloned into vector PCR-II™ (In Vitrogen, San Diego, Calif.). Error free CCR2B cDNA was subcloned as a Hind III-Not I fragment into the eukaryotic expression vector pCDNA3 (In Vitrogen) to generate pCDNA3/CC-CKR2A and pCDNA3/CCR2B respectively.
Linearised pCDNA3/CCR2B DNA was transfected into CHO-K1 cells by calcium phosphate precipitation (Wigler et al., 1979, Cell, 16, 777). Transfected cells were selected by the addition of Geneticin Sulphate (G418, Gibco BRL) at 1 mg/ml, 24 hours after the cells had been transfected. Preparation of RNA and Northern blotting were carried out as described previously (Needham et al., 1995, Prot. Express. Purific., 6, 134). CHO-K1 clone 7 (CHO-CCR2B) was identified as the highest MCP-1 receptor B expressor.
CHO-CCR2B cells were grown in DMEM supplemented with 10% foetal calf serum. 2 mM glutamine. […]
^125I MCP-1 was prepared using Bolton and Hunter conjugation (Bolton et al. 1973. Biochem. J., 133, 529, Amersham International plc]. Equilibrium binding assays were carried out using the method of Ernst et al., 1994, J. Immunol., 152, 3541. Briefly, varying amounts of ^125I-labeled MCP-1 were added to 7 μg of purified CHO-CCR2B cell membranes in 100 μl of Binding Buffer. After 1 hour incubation at room temperature the binding reaction mixtures were filtered and washed 5 times through a plate washer (Brandel MLR-96T Cell Harvester) using ice cold Binding Buffer. Filter mats (Brandel GF/B) were pre-soaked for 60 minutes in 0.3% polyethylenimine prior to use. Following filtration individual filters were separated into 3.5 ml tubes (Sarstedt No. 55,484) and bound ^125I-labeled MCP-1 was determined (LKB 1277 Gammamaster). […] Non-specific binding was determined by the inclusion of a 200-fold molar excess of unlabelled MCP-1 in the reaction. […]

[2] = test system: THP-1 cells; assay: MCP-1 mediated calcium flux in THP-1 cells; assay type: cell-based, human; settings: stimulation of THP-1 cells, approximate; read-out: EC50 for rise in [Ca2+]i
Procedure: The human monocytic cell line THP-1 was grown in a synthetic cell culture medium RPMI 1640 supplemented with 10% foetal calf serum. 6 mM glutamine and Penicillin-Streptomycin (at 50 μg streptomycin/mil, Gibco BRL). THP-1 cells were washed in HBSS (lacking Ca^2+ and Mg^2+)+1 mg/ml BSA and resuspended in the same buffer at a density of 3×10^6 cells/ml. The cells were then loaded with […] FURA-2/AM for 30 min at 37° C., washed twice in HBSS, and resuspended at 1×10^6 cells/ml. THP-1 cell suspension (0.9 ml) was added to a 5 ml disposable cuvette containing a magnetic stirrer bar and 2.1 ml of prewarmed (37° C.) HBSS containing 1 mg/ml BSA. 1 mM MgCl2 and 2 mM CaCl2. The cuvette was placed in a fluorescence spectrophotometer (Perkin Elmer, Norwalk, Conn.) and preincubated for 4 min at 37° C. with stirring. Fluorescence was recorded over 70 sec and cells were stimulated by addition of hMCP-1 to the cuvette after 10 sec. [Ca^2+]i was measured by excitation at 340 nm and 380 nm alternately and subsequent measurement of the intensity of the fluorescence emission at 510 nm.
where the Kd for FURA-2 Ca^2+ complex at 37° C. was taken to be 224 nm. […]

[3] = test system: THP-1 cells; assay: hMCP-1 mediated chemotaxis; assay type: cell-based, human; settings: THP-1 cell migration
Procedure: In vitro chemotaxis assays were performed using the human monocytic cell line THP-1. Cell migration through polycarbonate membranes was measured by enumerating those passing through either directly by Coulter counting or indirectly by use of a colourimetric viability assay measuring the cleavage of a tetrazolium salt by the mitochondrial respirator chain (Scudiero D. A., et al. 1988, Cancer Res., 48, 4827-4833).
Chemoattractants were introduced into a 96-well microtitre plate which forms the lower well of a chemotaxis chamber fitted with a PVP-free 5 μm poresize polycarbonate adhesive framed filter membrane (NeuroProbe MB series, Cabin John, Md. 20818, USA) according to the manufacturer's instructions. The chemoattractant was diluted as appropriate in synthetic cell culture medium. […] The plate was incubated at 37° C. for 3 h and the absorbance of the soluble formazan product was read on a microtitre plate reader at 450 nm. The data was input into a spreadsheet, corrected for any random migration in the absence of chemoattractant and the average absorbance values, standard error of the mean, and significance tests were calculated, hMCP-1 induced concentration dependent cell migration with a characteristic biphasic response, maximal 0.5-1.0 nm. […]

Compound | IC50 ([1]; competition with 100 pM labelled MCP-1, CHO-CCR2B membranes, read-out: IC50 in the hMCP-1 receptor binding assay) | IC50 ([1]; membrane fragments from CHO-CCR2B cells, cold competition, read-out: IC50 of MCP-1 binding to CCR2B) | Kd ([1]; membrane fragments from CHO-CCR2B cells, equilibrium binding) | EC50 [2] | concentration of maximal cell migration (biphasic response) [3]
O=C(NC1CCS(=O)(=O)C1)c1c(C(=O)O)n(Cc2ccc(Cl)c(Cl)c2)c2ccccc12 (centres unmarked) [Compound 81] | 6860 nM | – | – | – | –
MCP-1: Human Monocyte Chemoattractant Protein-1, a C—C chemokine; ligand of the MCP-1 (CCR2) receptor | – | 0.11 nM | 0.12 nM | ~2 nM | 0.5-1.0 nm
